{"source": "patent US10082506B2", "about": "(Wisconsin Alumni Research Foundation, priority 2014, dated 2018)", "key": {"hIntL-1 [1]": {"biological_target": "T1, hIntL-1 (Homo sapiens, UniProt Q8WWA0)", "T1 sequence (Q8WWA0 19-313)": "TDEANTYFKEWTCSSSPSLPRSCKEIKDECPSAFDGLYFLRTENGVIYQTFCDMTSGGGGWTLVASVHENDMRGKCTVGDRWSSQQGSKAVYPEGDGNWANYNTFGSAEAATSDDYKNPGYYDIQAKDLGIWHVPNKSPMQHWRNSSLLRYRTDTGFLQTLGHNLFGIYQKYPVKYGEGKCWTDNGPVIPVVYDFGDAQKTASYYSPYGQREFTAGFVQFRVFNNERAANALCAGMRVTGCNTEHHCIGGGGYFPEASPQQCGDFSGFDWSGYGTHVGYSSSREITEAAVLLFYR", "assay": "hIntL-1 surface plasmon resonance on immobilized carbohydrates", "type": "binding", "parameters": "made in house; host or cells: HEK 293T (transient transfection, suspension)", "settings": "concentrations up to 6-fold higher than the β-Galf KD", "method": "hIntL-1 Surface Plasmon Resonance (SPR). All hIntL-1 SPR was performed on a ProteOn XPR36 (Bio-Rad) at the University of Wisconsin-Madison Department of Biochemistry Biophysics Instrumentation Facility (BIF). To measure hIntL-1 binding, ProteOn NLC sensor chips (Bio-Rad) (NeutrAvidin coated chips) were used to capture carbohydrate-biotin ligand. All experiments presented here were conducted at surface saturated levels of ligand, ˜200 RU. In all experiments, captured biotin served as a control. Samples containing purified hIntL-1 were prepared by serial dilution into hIntL-1 SPR running buffer (20 mM HEPES (7.4) 150 mM NaCl, 1 mM CaCl2, and 0.005% tween-20). Surfaces were regenerated with short injections of 10 mM HCl. All data was interspot corrected and processed using the Bio-Rad ProteOn software package."}, "hIntL-1 [2]": {"biological_target": "T1, hIntL-1", "assay": "hIntL-1 carbohydrate binding ELISA-like assay (immobilized biotinylated carbohydrates)", "parameters": "made in house; host or cells: HEK 293T (transient transfection, suspension)", "settings": "for hIntL-1 binding to immobilized carbohydrate in ELISA: immobilized carbohydrate-biotin ligand", "method": "hIntL-1 Carbohydrate Binding ELISA-like Assay. To fabricate carbohydrate-displaying surfaces, 0.5 μg of streptavidin (Prozyme, cat. no. SA20) was adsorbed onto a Maxisorp (Nunc) flat bottom 96 well plate in PBS. Wells were washed with PBS and then coated with 5 μM of carbohydrate-biotin ligand in PBS for 1 hour at 22° C. Wells were blocked with bovine serum albumin (BSA) in ELISA buffer (20 mM HEPES (7.4) 150 mM NaCl, 10 mM CaCl2, and 0.1% tween-20). Samples containing hIntL-1 were prepared by serial dilution into ELISA buffer+0.1% BSA and added to wells for 2 hours at 22° C. Wells were washed four times with ELISA buffer. Bound hIntL-1 was detected using 0.75 μg/mL of a sheep IgG hIntL-1 antibody (R&D Systems, cat. no. AF4254) in ELISA buffer+0.1% BSA for 2 hours at 22° C. Wells were washed with ELISA buffer. A donkey anti-sheep IgG horseradish peroxidase (HRP) conjugate (Jackson ImmunoResearch Laboratories) was added at a 1:5,000 dilution in ELISA buffer+0.1% BSA for 1 hour at 22° C. Wells were washed and hIntL-1 was detected colorimetrically with addition of 1-Step Ultra TMB-ELISA (Pierce). Once sufficient signal was achieved (typically <2 min.), the reaction was quenched with addition of equal volume 2 M H2SO4. Plates were read at 450 nm on an EL×800 plate reader (Bio-Tek). […] Data were analyzed on Prism6 (GraphPad). Data were fit to the one site-specific binding equation."}, "hIntL-1 [3]": {"biological_target": "T1, hIntL-1", "settings": "reported by Tsuji et al., 2001; read-out: apparent KD / apparent affinity for hIntL-1; cited from earlier work"}, "[4]": {"test_system": "UDP-galactopyranose mutase (UGM)", "settings": "UGM from the species listed; cited from earlier work"}, "Strep-mIntL-1": {"biological_target": "Strep-mIntL-1 (Mus musculus, UniProt O88310)", "sequence (O88310 19-298)": "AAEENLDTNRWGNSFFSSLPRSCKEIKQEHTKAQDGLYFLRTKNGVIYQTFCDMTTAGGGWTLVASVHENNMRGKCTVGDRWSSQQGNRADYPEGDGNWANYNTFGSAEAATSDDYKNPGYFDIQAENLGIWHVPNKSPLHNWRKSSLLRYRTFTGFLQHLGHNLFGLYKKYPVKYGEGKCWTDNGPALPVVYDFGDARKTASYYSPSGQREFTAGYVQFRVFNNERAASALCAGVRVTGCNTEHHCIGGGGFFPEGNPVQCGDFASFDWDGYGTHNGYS", "settings": "SPR, referenced to biotin channel"}, "Strep-hIntL-1": {"biological_target": "T2, Strep-hIntL-1 (Homo sapiens, UniProt Q8WWA0)", "T2 construct": "made in house; host or cells: HEK 293T (transient transfection)", "T2 sequence (Q8WWA0 19-313)": "as the sequence (Q8WWA0 19-313) above", "assay": "Strep-hIntL-1 binding to S. pneumoniae serotypes", "settings": "detected with anti-Strep-tag:Oyster 642 nm antibody"}, "hIntL-1 [5]": {"biological_target": "T1, hIntL-1", "assay": "hIntL-1 on CFG mammalian glycan array v5.1", "type": "binding", "parameters": "made in house; host or cells: HEK 293T (transient transfection, suspension)", "settings": "hIntL-1 50 and 200 μg/ml"}}, "note": "Read-outs that look alike come from different tables or passages of the source.", "data": [{"smiles": "O=C(CCCCC1SCC2NC(=O)NC21)NCCOCCOCCOCCOCc1cn(CCCCCCCCCC=CCOC2OC(C(O)CO)C(O)C2O)nn1", "note": "(stereo not drawn)", "values": [{"measurement": "hIntL-1 binding to immobilized carbohydrate in SPR", "setting": "hIntL-1 [1]", "value": "robust binding"}, {"measurement": "Kd", "setting": "hIntL-1 [2]; disulfide-linked trimer, immobilized biotinylated carbohydrate, read-out: apparent avidity (apparent Kd) of trimeric hIntL-1 for immobilized ligand", "value": "85 ± 14", "unit": "nM"}]}, {"smiles": "CC(=O)N[C@H]1C(O)O[C@H](CO)[C@@H](O[C@@H]2O[C@@H]([C@H](O)CO)[C@H](O)[C@H]2O)[C@@H]1O", "note": "(stereo partly drawn) [2-acetamido-2-deoxy-4-O-beta-D-galactofuranosyl-D-glucopyranose]", "values": [{"measurement": "Kd", "setting": "hIntL-1 [3]", "value": 9, "unit": "mM"}]}, {"smiles": "O=C(O)C(Cc1ccc(I)cc1)Nc1nc(-c2ccc(Cl)c(Cl)c2)cs1", "note": "(stereo not drawn) [3-(4-iodophenyl)-2-[4-(3,4-dichlorophenyl)-thiazol-2-ylamino]-propionic acid]", "values": [{"measurement": "inhibition of UGM", "setting": "[4]", "value": "active against UGM"}]}, {"smiles": "Cc1c(C(=O)c2ccc(Cl)cc2)c(O)nn1-c1ccc(Cl)cc1", "note": "[4-chlorophenyl)-[1-(4-chlorophenyl)-3-hydroxy-5-methyl-1H-pyrazol-4-yl]-methanone]", "values": [{"measurement": "inhibition of UGM", "setting": "[4]", "value": "inhibits UGM"}]}, {"smiles": "O=C[C@H](O)[C@H](O)[C@H](O)CO", "note": "[D-ribose]", "values": [{"measurement": "Kd", "setting": "hIntL-1 [3]", "value": "< 5", "unit": "mM"}]}, {"smiles": "O=C(O)CN(CCN(CC(=O)O)CC(=O)O)CC(=O)O", "note": "[EDTA]", "values": [{"measurement": "effect of additive on mIntL-1 carbohydrate binding", "setting": "Strep-mIntL-1", "value": "prevents carbohydrate binding"}, {"measurement": "effect of additive on hIntL-1 binding to S. pneumoniae", "setting": "Strep-hIntL-1", "value": "abrogate binding"}, {"measurement": "effect of additive on hIntL-1 binding to β-Galf", "setting": "hIntL-1 [2]; hIntL-1 conditioned HEK culture media, 25 mM EDTA", "value": "completely abolished binding"}]}, {"smiles": "CC(=O)N[C@H]1[C@H](OC[C@H]2OC(O)[C@H](NC(C)=O)[C@@H](O)[C@H]2O)O[C@H](CO)[C@H](O)[C@@H]1O", "note": "(stereo partly drawn) [GalNAcβ1-6GalNAc]", "values": [{"measurement": "hIntL-1 binding signal on CFG mammalian glycan array", "setting": "hIntL-1 [5]", "value": "highest signal"}]}, {"smiles": "CC(=O)N[C@H]1[C@H]([C@H](O)[C@H](O)CO)OC(O)(C(=O)O)C[C@@H]1O", "note": "(stereo partly drawn) [Neu5Ac, N-acetyl-neuraminic acid]", "values": [{"measurement": "hIntL-1 binding signal on CFG mammalian glycan array", "setting": "hIntL-1 [5]", "value": "lack of affinity"}, {"measurement": "hIntL-1 binding to immobilized carbohydrate in ELISA", "setting": "hIntL-1 [2]", "value": "lack of affinity"}, {"measurement": "hIntL-1 binding to immobilized carbohydrate in ELISA", "setting": "hIntL-1 [2]; listed as α-Neu5Ac", "value": "does not bind"}]}, {"smiles": "OCC(O)CO", "note": "[glycerol]", "values": [{"measurement": "effect of additive on hIntL-1 binding to S. pneumoniae", "setting": "Strep-hIntL-1", "value": "abrogate binding"}]}, {"smiles": "OC[C@H]1O[C@@H](O)[C@H](O)[C@@H](O)[C@H]1O", "note": "[β-Galp, β-galactopyranose]", "values": [{"measurement": "hIntL-1 binding to immobilized carbohydrate in SPR", "setting": "hIntL-1 [1]", "value": "small response"}]}]}
